Measurements reported in publication PMC2771899, “Augmentation of Reverse Transcription by Integrase through an Interaction with Host Factor, SIP1/Gemin2 Is Critical for HIV-1 Infection” (PLoS ONE, 2009).

Columns and labels:
[1] = system: MLV cDNA synthesis; assay type: cell-based, Moloney murine leukemia virus; details: PMA-stimulated THP-1 cells, 100 µM peptide, MMLV vector pFB-Luc; R/U5 24 h post-infection; compared with DMSO or control peptide
[2] = system: viral entry and RT enzymatic activity; experiment: Direct effect on viral entry and RT enzymatic activity; parameters: species or system HIV-1; details: data not shown
[3] = system: HIVNL43-luc/VSV-G pseudotypes; assay type: cell-based, HIV-1
[4] = target: T1, IN-SIP1 mediated RT activity (Homo sapiens, UniProt O14893); experiment: In vitro RT assay, inhibition of IN-SIP1 mediated RT activity by peptide; assay type: biochemical, HIV-1
T1 construct: the SIP1 gene was amplified from pTRE-SIP1 (kindly provided by Dr. G. Dreyfuss) by PCR and cloned into BamHI and EcoRI sites of pGEX-6P-2; GST (N, cleaved yes); made in house; host or cells: E. coli BL21 (GST-SIP1), E. coli M15 (His-IN)
T1 sequence (O14893 1-280): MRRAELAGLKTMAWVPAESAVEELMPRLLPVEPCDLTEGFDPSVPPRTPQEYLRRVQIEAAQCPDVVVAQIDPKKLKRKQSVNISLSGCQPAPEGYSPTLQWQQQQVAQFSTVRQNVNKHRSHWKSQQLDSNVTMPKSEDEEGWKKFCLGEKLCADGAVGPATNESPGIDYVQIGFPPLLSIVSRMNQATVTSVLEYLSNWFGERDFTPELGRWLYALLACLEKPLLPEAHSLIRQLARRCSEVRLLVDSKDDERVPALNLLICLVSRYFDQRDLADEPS

[5] = system: rSIP1; experiment: Dot-blot binding of peptide to SIP1; details: 40 or 400 nmol peptide on nitrocellulose, rSIP1 (5 µg), anti-SIP1 antibody
[6] = system: HIV-1 cDNA synthesis; assay type: cell-based; details: PMA-stimulated THP-1 cells, 100 µM peptide 16 h before and 6 h during infection; R/U5 and R/gag, 24 h post-infection
[7] = system: IN-SIP1 interaction (His-IN, rSIP1); experiment: Dot-blot inhibition of IN-SIP1 interaction by peptide; assay type: binding, HIV-1

Substance: IN60–80: synthetic peptide corresponding to the residues of 60–80 of HIV-1 IN (IWQLDCTHLEGKVILVAVHVA; Integrase; UniProt P04585 1207-1227, looked up, fragment)
- Effect on MLV cDNA synthesis [1]: no significant inhibitory effect
- Direct effect on viral entry and RT enzymatic activity [2]: does not directly suppress viral entry and RT enzymatic activity
- HIV-1 infectivity, % of control [3]: 20–25 % of control
- IC50, inhibition of IN-SIP1 mediated RT activity ([4]; 35 fmol RT, 3.5 fmol His-IN, 50 fmol rSIP1, 42°C, 30 min, 20 µl, real-time PCR): ~10 pmoles per reaction
- Effect on IN-SIP1 mediated RT activity ([4]; 35 fmol RT, 3.5 fmol His-IN, 50 fmol rSIP1, cDNA relative to control): significantly reduced the IN-SIP1 mediated RT activity in a dose-dependent manner
- Inhibitory effect on IN-SIP1 mediated RT activity relative to IN231–251 ([4]; IN60–80 versus IN231–251): more than 100 times
- Effect on IN-mediated RT stimulatory effect and HIV-1 replication ([4]; summary statement): specifically block IN-mediated RT stimulatory effect and HIV-1 replication
- Direct binding of peptide to rSIP1 [5]: efficiently bound to rSIP1
- Viral cDNA synthesis, % of control [6]: less than 25 % of control
- Peptide concentration that reduces His-WT binding to SIP1 to non-specific background levels ([7]; His-IN (10 µg) on nitrocellulose, 5 µg rSIP1): About 5 µM
- Interference with binding of full-length IN (His-WT) to SIP1 ([7]; His-IN (10 µg) on nitrocellulose, 5 µg rSIP1, peptide present): significantly interfered with the binding of the full-length IN (His-WT) to the SIP1 protein
- Inhibitory effect on His-WT binding to SIP1 relative to IN231–251 ([7]; IN60–80 versus IN231–251): more than 10 times
